Test results taken from PubChem BioAssay AID1963983 (Molecular Pharmacology Branch, DTP, NCI, 2024).

Test system: 186277-243-T-J2-PDC multi-cell spheroid viability
Experiment: Anticancer human tumor 186277-243-T-J2-PDC patient-derived colon adenocarcinoma cell line growth inhibition [PI3K]
Details: for IC50: curve of first compound; for viability, T/C: stronger effect = lower value
Method in brief: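 Spheroid viability read-out. Co-cultures contained the tumor line plus HUVEC and human MSCs. Each agent was paired with a PI3K inhibitor (inavolisib, alpelisib, duvelisib, copanlisib) across half-log dilutions starting at clinical Cmax, or at 10 microM when Cmax was unknown.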

[1] = second compound 0.00316 µM, first compound 0.0316 µM
[2] = second compound 0.00316 µM, first compound 0.1 µM
[3] = second compound 0.01 µM, first compound 0.0316 µM
[4] = second compound 0.01 µM, first compound 0.1 µM
[5] = second compound 0.0316 µM, first compound 0.0316 µM
[6] = second compound 0.0316 µM, first compound 0.1 µM
[7] = second compound 0.0316 µM, first compound 0.316 µM
[8] = second compound 0.0316 µM, first compound 1 µM
[9] = second compound 0.0316 µM, first compound 3.16 µM
[10] = second compound 0.0316 µM, first compound 10 µM
[11] = second compound 0.1 µM, first compound 0.0316 µM
[12] = second compound 0.1 µM, first compound 0.1 µM
[13] = second compound 0.1 µM, first compound 0.316 µM
[14] = second compound 0.1 µM, first compound 1 µM
[15] = second compound 0.1 µM, first compound 3.16 µM
[16] = second compound 0.1 µM, first compound 10 µM
[17] = second compound 0.316 µM, first compound 0.0316 µM
[18] = second compound 0.316 µM, first compound 0.1 µM
[19] = second compound 0.316 µM, first compound 0.316 µM
[20] = second compound 0.316 µM, first compound 1 µM
[21] = second compound 0.316 µM, first compound 3.16 µM
[22] = second compound 0.316 µM, first compound 10 µM
[23] = second compound 1 µM, first compound 0.0316 µM
[24] = second compound 1 µM, first compound 0.1 µM
[25] = second compound 1 µM, first compound 0.316 µM
[26] = second compound 1 µM, first compound 1 µM
[27] = second compound 1 µM, first compound 3.16 µM
[28] = second compound 1 µM, first compound 10 µM
[29] = second compound 0.00316 µM, first compound 0.000316 µM
[30] = second compound 0.00316 µM, first compound 0.001 µM
[31] = second compound 0.00316 µM, first compound 0.00316 µM
[32] = second compound 0.00316 µM, first compound 0.01 µM
[33] = second compound 0.01 µM, first compound 0.000316 µM
[34] = second compound 0.01 µM, first compound 0.001 µM
[35] = second compound 0.01 µM, first compound 0.00316 µM
[36] = second compound 0.01 µM, first compound 0.01 µM
[37] = second compound 0.0316 µM, first compound 0.000316 µM
[38] = second compound 0.0316 µM, first compound 0.001 µM
[39] = second compound 0.0316 µM, first compound 0.00316 µM
[40] = second compound 0.0316 µM, first compound 0.01 µM
[41] = second compound 0.1 µM, first compound 0.000316 µM
[42] = second compound 0.1 µM, first compound 0.001 µM
[43] = second compound 0.1 µM, first compound 0.00316 µM
[44] = second compound 0.1 µM, first compound 0.01 µM
[45] = second compound 0.316 µM, first compound 0.000316 µM
[46] = second compound 0.316 µM, first compound 0.001 µM
[47] = second compound 0.316 µM, first compound 0.00316 µM
[48] = second compound 0.316 µM, first compound 0.01 µM
[49] = second compound 1 µM, first compound 0.000316 µM
[50] = second compound 1 µM, first compound 0.001 µM
[51] = second compound 1 µM, first compound 0.00316 µM
[52] = second compound 1 µM, first compound 0.01 µM
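Also: spheroids exposed to compounds for seven days before viability reading.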
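For viability, T/C in this document: 100% = DMSO vehicle control viability.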

For CC(Cn1ccc(-c2ccc(C#N)c(Cl)c2)n1)NC(=O)c1cc(C(C)O)[nH]n1 (stereo not drawn) + COc1c(OCCCN2CCOCC2)ccc2c3n(c(=NC(=O)c4cnc(N)nc4)nc12)CCN3, the IC50 (second compound 0.00316 µM) was over 10000 nM, the IC50 (second compound 0.01 µM) was over 10000 nM and the IC50 (second compound 0.0316 µM) was over 10000 nM. For the same compound, the IC50 (second compound 0.1 µM) was under 31.6 nM, the IC50 (second compound 0.316 µM) was under 31.6 nM and the IC50 (second compound 1 µM) was under 31.6 nM. For the same compound, the viability, T/C [1] was 94.2%, the viability, T/C [2] was 92.1% and the viability, T/C (second compound 0.00316 µM, first compound 0.316 µM) was 101%. The viability, T/C (second compound 0.00316 µM, first compound 1 µM) was 105%, the viability, T/C (second compound 0.00316 µM, first compound 3.16 µM) was 116% and the viability, T/C (second compound 0.00316 µM, first compound 10 µM) was 86.9%. For the same compound, the viability, T/C [3] was 99.2%, the viability, T/C [4] was 100% and the viability, T/C (second compound 0.01 µM, first compound 0.316 µM) was 101%. The viability, T/C (second compound 0.01 µM, first compound 1 µM) was 108%, the viability, T/C (second compound 0.01 µM, first compound 3.16 µM) was 93.3% and the viability, T/C (second compound 0.01 µM, first compound 10 µM) was 90.1%. It also gave a viability, T/C [5] of 74.7%, a viability, T/C [6] of 74.9% and a viability, T/C [7] of 69.2%. For the same compound, the viability, T/C [8] was 70.9%, the viability, T/C [9] was 75.5% and the viability, T/C [10] was 58%. It also gave a viability, T/C [11] of 16.7%, a viability, T/C [12] of 17.3% and a viability, T/C [13] of 17.4%. The viability, T/C [14] was 15.9%, the viability, T/C [15] was 19% and the viability, T/C [16] was 17%. For the same compound, the viability, T/C [17] was 6.31%, the viability, T/C [18] was 6.68% and the viability, T/C [19] was 3.61%. The viability, T/C [20] was 6.24%, the viability, T/C [21] was 6.1% and the viability, T/C [22] was 4.81%. For the same compound, the viability, T/C [23] was 3.61%, the viability, T/C [24] was 3.8% and the viability, T/C [25] was 2.93%. The viability, T/C [26] was 2.25%, the viability, T/C [27] was 3.36% and the viability, T/C [28] was 2.45%.

In the case of CC(C)n1nc(-c2ccc3oc(N)nc3c2)c2c(N)ncnc21 + COc1c(OCCCN2CCOCC2)ccc2c3n(c(=NC(=O)c4cnc(N)nc4)nc12)CCN3, the IC50 (second compound 0.00316 µM) is reported as 49.7 nM, the IC50 (second compound 0.01 µM) is reported as 42.2 nM and the IC50 (second compound 0.0316 µM) is reported as 5.38 nM. For the same compound, the IC50 (second compound 0.1 µM) was under 0.316 nM, the IC50 (second compound 0.316 µM) was under 0.316 nM and the IC50 (second compound 1 µM) was under 0.316 nM. For the same compound, the viability, T/C [29] was 108%, the viability, T/C [30] was 81.1% and the viability, T/C [31] was 97.7%. The viability, T/C [32] was 82.9%, the viability, T/C [1] was 70.8% and the viability, T/C [2] was 21.2%. For the same compound, the viability, T/C [33] was 97.5%, the viability, T/C [34] was 103% and the viability, T/C [35] was 86.5%. For the same compound, the viability, T/C [36] was 89.8%, the viability, T/C [3] was 61% and the viability, T/C [4] was 14.7%. The viability, T/C [37] was 74.2%, the viability, T/C [38] was 70.6% and the viability, T/C [39] was 59.5%. The viability, T/C [40] was 39%, the viability, T/C [5] was 17.1% and the viability, T/C [6] was 6.6%. It also gave a viability, T/C [41] of 17%, a viability, T/C [42] of 17.5% and a viability, T/C [43] of 14.3%. For the same compound, the viability, T/C [44] was 9.3%, the viability, T/C [11] was 8.21% and the viability, T/C [12] was 3.59%. The viability, T/C [45] was 4.14%, the viability, T/C [46] was 7.06% and the viability, T/C [47] was 4.26%. It also gave a viability, T/C [48] of 4.69%, a viability, T/C [17] of 2.78% and a viability, T/C [18] of 2.4%. It also gave a viability, T/C [49] of 3.07%, a viability, T/C [50] of 1.73% and a viability, T/C [51] of 3%. For the same compound, the viability, T/C [52] was 1.5%, the viability, T/C [23] was 3.24% and the viability, T/C [24] was 1.04%.

Cn1ncnc1[C@H]1c2n[nH]c(=O)c3cc(F)cc(c23)N[C@@H]1c1ccc(F)cc1 + CC(Nc1ccc2c(c1)OCCn1cc(N3C(=O)OCC3C(F)F)nc1-2)C(N)=O gave an IC50 (second compound 0.00316 µM) of over 100 nM, an IC50 (second compound 0.01 µM) of over 100 nM and an IC50 (second compound 0.0316 µM) of over 100 nM. The IC50 (second compound 0.1 µM) was over 100 nM, the IC50 (second compound 0.316 µM) was 46.8 nM and the IC50 (second compound 1 µM) was 0.592 nM. It also gave a viability, T/C [29] of 93.7%, a viability, T/C [30] of 85.8% and a viability, T/C [31] of 105%. It also gave a viability, T/C [32] of 91%, a viability, T/C [1] of 101% and a viability, T/C [2] of 94.9%. It also gave a viability, T/C [33] of 101%, a viability, T/C [34] of 102% and a viability, T/C [35] of 104%. It also gave a viability, T/C [36] of 102%, a viability, T/C [3] of 102% and a viability, T/C [4] of 98.6%. The viability, T/C [37] was 117%, the viability, T/C [38] was 107% and the viability, T/C [39] was 101%. The viability, T/C [40] was 97.9%, the viability, T/C [5] was 101% and the viability, T/C [6] was 89%. The viability, T/C [41] was 102%, the viability, T/C [42] was 105% and the viability, T/C [43] was 112%. It also gave a viability, T/C [44] of 99.5%, a viability, T/C [11] of 93.5% and a viability, T/C [12] of 69.4%. It also gave a viability, T/C [45] of 80.6%, a viability, T/C [46] of 84.4% and a viability, T/C [47] of 65%. It also gave a viability, T/C [48] of 64.8%, a viability, T/C [17] of 53.7% and a viability, T/C [18] of 43.3%. The viability, T/C [49] was 52.2%, the viability, T/C [50] was 46.6% and the viability, T/C [51] was 46.9%. The viability, T/C [52] was 39.4%, the viability, T/C [23] was 31.9% and the viability, T/C [24] was 26.6%.

Cn1nccc1Nc1nccc(-c2ccn(C(CO)c3ccc(Cl)c(F)c3)c(=O)c2)n1 (stereo not drawn) + Cc1nc(NC(=O)N2CCCC2C(N)=O)sc1-c1ccnc(C(C)(C)C(F)(F)F)c1 showed an IC50 (second compound 0.0316 µM) of 1840 nM, an IC50 (second compound 0.1 µM) of 1190 nM and an IC50 (second compound 0.316 µM) of 670 nM. It also gave an IC50 (second compound 1 µM) of 152 nM, an IC50 (second compound 3.16 µM) of under 31.6 nM and an IC50 (second compound 10 µM) of under 31.6 nM. For the same compound, the viability, T/C [5] was 89%, the viability, T/C [6] was 104% and the viability, T/C [7] was 117%. The viability, T/C [8] was 71.3%, the viability, T/C [9] was 34.2% and the viability, T/C [10] was 18.5%. For the same compound, the viability, T/C [11] was 91.8%, the viability, T/C [12] was 108% and the viability, T/C [13] was 99.5%. The viability, T/C [14] was 53.8%, the viability, T/C [15] was 30.9% and the viability, T/C [16] was 22.5%. For the same compound, the viability, T/C [17] was 105%, the viability, T/C [18] was 100% and the viability, T/C [19] was 76.2%. For the same compound, the viability, T/C [20] was 34.8%, the viability, T/C [21] was 20.5% and the viability, T/C [22] was 9.74%. The viability, T/C [23] was 94.9%, the viability, T/C [24] was 61.1% and the viability, T/C [25] was 30.9%. For the same compound, the viability, T/C [26] was 13.9%, the viability, T/C [27] was 14% and the viability, T/C [28] was 6.14%. The viability, T/C (second compound 3.16 µM, first compound 0.0316 µM) was 47.4%, the viability, T/C (second compound 3.16 µM, first compound 0.1 µM) was 29.6% and the viability, T/C (second compound 3.16 µM, first compound 0.316 µM) was 15%. For the same compound, the viability, T/C (second compound 3.16 µM, first compound 1 µM) was 5.96%, the viability, T/C (second compound 3.16 µM, first compound 3.16 µM) was 8.12% and the viability, T/C (second compound 3.16 µM, first compound 10 µM) was 2.21%. It also gave a viability, T/C (second compound 10 µM, first compound 0.0316 µM) of 9.88%, a viability, T/C (second compound 10 µM, first compound 0.1 µM) of 9.03% and a viability, T/C (second compound 10 µM, first compound 0.316 µM) of 8.27%. For the same compound, the viability, T/C (second compound 10 µM, first compound 1 µM) was 8.15%, the viability, T/C (second compound 10 µM, first compound 3.16 µM) was 1.39% and the viability, T/C (second compound 10 µM, first compound 10 µM) was 2.02%.
